For orientation: bioavailability means the share of a dose that reaches the circulation, judged against a reference dose that is usually intravenous. What is called EC50 is the concentration that produces a half-maximal response.

Results on 14 compounds are retold here after patent publication US11891386B2, “Indole compounds and their use” (ARIAGEN, INC., priority 2017, dated 2024).

The test system of data set [1] is EMT-6 syngeneic mouse tumor model (breast cancer). Put plainly: Anti-tumor activity, EMT-6 syngeneic mouse tumor model. The note with it: for anti-tumor potency, in words: EMT-6 model, 40 mpk; for inhibition in vivo at 40 mg/kg: Mus musculus, EMT6, ip, read-out: TGI (tumor growth inhibition). In kind it is in vivo. The method, then: This example describes in vivo studies that evaluated the anti-cancer efficacy of the disclosed indole compounds in syngeneic mouse tumor models. Mice implanted subcutaneously with four types of cancer cells were treated with test indole compounds or vehicle controls as described below.
A monolayer culture of tumor cells was maintained in vitro in DMEM or RPMI1640 medium supplemented with 10% fetal bovine serum at 37° C. in an atmosphere of 5% CO2. Cells in exponential growth phase were harvested and quantitated by cell counter before tumor inoculation. The cell lines used are described in the table below.
Four subcutaneous syngeneic mouse tumor models were generated by innoculating female BALB/C or C57BL/6 mice with cancer cells at their right lower or front flank as detailed in the table below:
Each mouse was inoculated subcutaneously with tumor cells in 0.1 mL of PBS. Treatments were started when the mean tumor size reached approximately 80-120 mm^3 (around 100 mm^3). The administration of the indole compounds and the animal number in each study group are shown in the study design. The date of tumor cell inoculation was denoted as day 0.
The indole compounds were dissolved in DMSO at the final concentration of 26.7 mg/ml and stored at room temperature.
Randomization of animals was started when the mean tumor size reached approximately 90 mm^3 to form the mouse study groups. The randomization was performed based on “Matched distribution” method using the multi-task method (StudyDirector™ software, version 3.1.399.19)/randomized block design. The mouse groups (ten in each group) were treated with vehicle (DMSO) or the indole compounds at a dose of 40 mg/kg by i.p. injection, QD for 28 days or longer.
After tumor cell inoculation, the mice were checked daily for morbidity and mortality. During routine monitoring, the mice were checked for tumor growth and any effects of the treatment on behavior such as mobility, food and water consumption, body weight gain/loss (body weights were measured twice per week after randomization), eye/hair matting, and any other abnormalities. Mortality and observed clinical signs were recorded for individual mice in detail.
Tumor volumes were measured twice per week in two dimensions using a caliper, and the volume was expressed in mm^3 using the formula: V=(L×W×W)/2, where V is tumor volume, L is tumor length (the longest tumor dimension) and W is tumor width (the longest tumor dimension perpendicular to L). Dosing as well as tumor and body weight measurements was conducted in a Laminar Flow Cabinet. The body weights and tumor volumes were measured by using StudyDirector™ software (version 3.1.399.19). Dosing Holiday
Tumor growth inhibition percentage (TGI %) is an indicator for antitumor activity of a drug compound, and expressed as: TGI (%)=100×(1−T/C), where T and C are the mean tumor volume (or weight) of the treated and control groups, respectively, on a given day. Statistical analysis of the difference in mean tumor volume (MTV) among the groups was conducted using the data collected on the day when the MTV of the vehicle group reached the humane endpoints, so that TGI could be derived for all or most mice enrolled in the study.
In Studies 1 and 3, the anti-tumor activity of ARI-001 in parallel with ARI-002 at 160 mg/kg (mpk), and the anti-tumor activity of ARI-087 in parallel with ARI-002 at 40 mpk were assessed using the EMT-6, Pan02, A20, and LL/2 models. Because EMT-6 provides a fast-growing model that enables relatively quick differentiation of performance between compounds, this syngeneic mouse tumor model was chosen for the other studies. In Study 2, the anti-tumor activity of ARI-002 was compared with that of ARI-004 at 10, 40, and 80 mpk. In Study 4, the anti-tumor activity of ARI-087 was compared with that of ARI-140. In Study 5, the anti-tumor activity of ARI-087 was evaluated in parallel with ARI-143 and ARI-149 at 40 mpk. […]

The test system of data set [2] is CYP1A1 in human HepG2 cells. Briefly: EROD assay (7-ethoxy-resorufin-O-deethylase), human HepG2 cells. The note with it: for activity group based on EC50 values, in the order of increasing activity: human EROD assay, oxadiazole derivatives of ITE; for activity in the human EROD assay compared to ARI-001 / ARI-002, in words / EC50: human HepG2 cells; for EC50: EROD assay, 20 hours treatment. The class given is cell-based. Also on record: key to activity group based on EC50 values, in the order of increasing activity: (1) active; (2) more active; (3) most active. The method, then: CYP1A1 induction is under the control of the AhR signaling pathway. This Example describes an in vitro assay (7-ethoxy-resorufin-O-deethylase (EROD) assay) that evaluated the AhR modulating activities of the indole compounds described herein. In this assay, the indole compounds were incubated with human HepG2 cells or mouse Hepal-6 cells. The activity of CYP1A1 in the cells was measured by the conversion of substrate 7-ethoxyresorufin, with the readout being a fluorescence signal associated with the conversion product. The EC50 values of the indole compounds as well as the maximum […] induced by them in the assay were determined.
Human HepG2 cells were obtained from Sigma Aldrich (Catalog 85011430-1VL). Mouse Hepal-6 cells also were obtained from Sigma Aldrich (Catalog 92110305-1V).
Human HepG2 and Mouse Hepal-6 cells were grown to 60-80% confluency in tissue culture flasks, lifted with non-enzymatic cell dissociation solution (cell stripper), seeded in a 384-well plate at 5,000 cells per well, treated with the test compounds, and incubated for 20 hours overnight at 37° C. The treatment medium was removed and a solution of substrate 7-ethoxyresorufin (ETX) was added to initiate the reaction. The plate was incubated at 37° C. for 30 minutes. The reaction was subsequently terminated by adding tempered methanol. Fluorescent emission was measured at 590 nm with excitation at 530 nm in a FLEXSTATION III instrument (Molecular Devices).

A short description of data set [3]: In vivo pharmacokinetic study in Sprague-Dawley rats. The note with it: rat. On the procedure:
This example describes pharmacokinetic (PK) studies of the various indole compounds described herein in rats, a rodent species widely used for pre-clinical toxicology evaluation. In the present studies, the test compounds were given to groups of Sprague-Dawley rats (N=3 in each group) intravenously (IV) at 2 mg/kg or orally (PO) at 10 mg/kg. IV doses were formulated in DMSO, while PO doses were formulated in a 50/50 mixture of PEG400 and Tween 80. Blood samples were collected at pre-dose and over a period of 24 hours post-dose. Plasma concentrations of the indole compounds were determined by HPLC.

Where [4] appears, read: 720 h, Study 5, EMT-6, 40 mpk i.p. QD, D30.
Setting [5] is: 624 h, Study 6, EMT-6, 40 mpk i.p. QD, D26.

Where two headings read alike, the source gives them in different places.

For the compound `Nc1nnc(-c2csc(C(=O)c3c[nH]c4ccc(F)cc34)n2)o1` [ARI-148, (4-(5-amino-1,3,4-oxadiazol-2-yl)thiazol-2-yl)(5-fluoro-1H-indol-3-yl)methanone], in data set [1], the “anti-tumor potency, in words” value is given as “less anti-tumor potency than ARI-087”. Moreover, in data set [1] (setting [4]), the inhibition in vivo at 40 mg/kg amounted to 4.8%. In data set [2], the “activity group based on EC50 values, in the order of increasing activity” value (shortened to “activity group based … of increasing activity”) is listed as “more active” and the “activity in the human EROD assay compared to ARI-001 / ARI-002, in words” value was “significantly more (about 4 to 900 times more) active than ARI-001”.
Regarding `COC(=O)c1csc(C(=O)c2c[nH]c3ccc(F)cc23)n1` [ARI-066, methyl 2-(5-fluoro-1H-indole-3-carbonyl)thiazole-4-carboxylate], the “activity in the human EROD assay compared to ARI-001 / ARI-002, in words” value in data set [2] is recorded as “less active”.
Consider `Nc1nnc(-c2csc(C(=O)c3c[nH]c4ccccc34)n2)s1` [ARI-090, (4-(5-amino-1,3,4-thiadiazol-2-yl)thiazol-2-yl)(1H-indol-3-yl)methanone], for which the “anti-tumor potency, in words” value in data set [1] is listed as “less anti-tumor potency than ARI-087”. Besides, the inhibition in vivo at 40 mg/kg in data set [1] (setting [5]) worked out at 30.1%. For the same compound, in data set [2], the “activity group based … of increasing activity” value was “more active” and the “activity in the human EROD assay compared to ARI-001 / ARI-002, in words” value is on record as “significantly more (about 4 to 900 times more) active than ARI-001”.
On to `NCc1nc(-c2csc(C(=O)c3c[nH]c4c(F)cccc34)n2)no1` [ARI-146, (4-(5-(aminomethyl)-1,2,4-oxadiazol-3-yl)thiazol-2-yl)(7-fluoro-1H-indol-3-yl)methanone], for which, in data set [1], the “anti-tumor potency, in words” value is listed as “less anti-tumor potency than ARI-087”. The inhibition in vivo at 40 mg/kg in data set [1] (setting [4]) was 23.2%.
On to `COC(=O)c1csc(C(=O)c2c[nH]c3ccc(Cl)cc23)n1` [ARI-055, methyl 2-(5-chloro-1H-indole-3-carbonyl)thiazole-4-carboxylate], for which the “activity in the human EROD assay compared to ARI-001 / ARI-002, in words” value in data set [2] is on record as “less active”.
With `Nc1nnc(-c2csc(C(=O)c3c[nH]c4cc(Cl)c(Cl)cc34)n2)o1` [ARI-120, (4-(5-amino-1,3,4-oxadiazol-2-yl)thiazol-2-yl)(5,6-dichloro-1H-indol-3-yl)methanone], in data set [1], the “anti-tumor potency, in words” value was “less anti-tumor potency than ARI-087”. Moreover, the inhibition in vivo at 40 mg/kg in data set [1] (setting [4]) turned out to be 27.2%. In addition, in data set [2], the “activity group based … of increasing activity” value is “most active” and the “activity in the human EROD assay compared to ARI-001 / ARI-002, in words” value is “significantly more (about 4 to 900 times more) active than ARI-001”.
Consider `CCC(=O)c1csc(C(=O)c2c[nH]c3ccc(Cl)cc23)n1` [ARI-067, 1-(2-(5-chloro-1H-indole-3-carbonyl)thiazol-4-yl)propan-1-one], for which the bioavailability in data set [3] (Sprague-Dawley, plasma, po, 10 mg/kg, PO (10 mg/kg) vs IV (2 mg/kg), read-out: F % (bioavailability)) stood at 3.5%. The “% of Hepatisc Blood Flow” value in data set [3] (IV (2 mg/kg)) amounted to 350%. Also, the “activity in the human EROD assay compared to ARI-001 / ARI-002, in words” value in data set [2] was “less active”.
Regarding `CNC(=O)c1csc(C(=O)c2c[nH]c3ccc(F)cc23)n1` [ARI-065, 2-(5-fluoro-1H-indole-3-carbonyl)-N-methylthiazole-4-carboxamide], in data set [2], the “activity in the human EROD assay compared to ARI-001 / ARI-002, in words” value is given as “less active”.
For the compound `NCc1nnc(-c2csc(C(=O)c3c[nH]c4c(F)cccc34)n2)o1` [ARI-145, (4-(5-(aminomethyl)-1,3,4-oxadiazol-2-yl)thiazol-2-yl)(7-fluoro-1H-indol-3-yl)methanone], the “anti-tumor potency, in words” value in data set [1] is given as “less anti-tumor potency than ARI-087”. Moreover, the inhibition in vivo at 40 mg/kg in data set [1] (setting [4]) worked out at 10.5%. For the same compound, in data set [2], the “activity group based … of increasing activity” value is recorded as “more active” and the “activity in the human EROD assay compared to ARI-001 / ARI-002, in words” value was “significantly more (about 4 to 900 times more) active than ARI-001”.
In the case of `Cc1nnc(-c2csc(C(=O)c3c[nH]c4ccccc34)n2)o1` [ARI-060, (1H-indol-3-yl)(4-(5-methyl-1,3,4-oxadiazol-2-yl)thiazol-2-yl)methanone], in data set [2], the “activity group based … of increasing activity” value is “active” and the “activity in the human EROD assay compared to ARI-001 / ARI-002, in words” value is given as “significantly more (about 4 to 900 times more) active than ARI-001”.
In the case of `CCC(=O)c1csc(C(=O)c2c[nH]c3c(F)cccc23)n1` [ARI-140, 1-(2-(7-fluoro-1H-indole-3-carbonyl)thiazol-4-yl)propan-1-one], in data set [1] (672 h, Study 4, EMT-6, 40 mpk i.p. QD, D28), the inhibition in vivo at 40 mg/kg worked out at 30.6%. The same compound displayed an EC50 in data set [2] of 0.7 nM.
On to `CCC(=O)c1csc(C(=O)c2c[nH]c3cccc(F)c23)n1` [ARI-142, 1-(2-(4-fluoro-1H-indole-3-carbonyl)thiazol-4-yl)propan-1-one], for which, in data set [2], the midpoint of the response, the EC50, lay at 64.8 nM and the “activity in the human EROD assay compared to ARI-001 / ARI-002, in words” value is recorded as “less active than ARI-002”.
As to `O=C(c1nc(-c2nnco2)cs1)c1c[nH]c2ccccc12` [ARI-056, (4-(1,3,4-oxadiazol-2-yl)thiazol-2-yl)(1H-indol-3-yl)methanone], the “anti-tumor potency, in words” value in data set [1] is recorded as “less anti-tumor potency than ARI-087”. Besides, in data set [1] (setting [5]), the inhibition in vivo at 40 mg/kg is 34.3%. Moreover, in data set [2], the “activity group based … of increasing activity” value is “active” and the “activity in the human EROD assay compared to ARI-001 / ARI-002, in words” value is listed as “significantly more (about 4 to 900 times more) active than ARI-001”.
With `CNC(=O)c1csc(C(=O)c2c[nH]c3ccc(Cl)cc23)n1` [ARI-049, 2-(5-chloro-1H-indole-3-carbonyl)-N-methylthiazole-4-carboxamide], in data set [2], the “activity in the human EROD assay compared to ARI-001 / ARI-002, in words” value is given as “less active”.
